# Literature values, collected in patent US8497290B2, “Thiocolchicine derivatives, method of making and methods of use thereof” (priority 2009, dated 2013).
# Test system: rat model
# Conditions: metabolites of thiocolchicoside, compared with thiocolchicoside
structure (smiles),measurement,value
"COc1c(O[C@@H]2O[C@H](C(=O)O)[C@@H](O)[C@H](O)[C@H]2O)cc2c(c1OC)-c1ccc(SC)c(=O)cc1[C@@H](NC(C)=O)CC2 [3-O-glucuronidated aglycone derivative, (7S)-7-(acetylamino)-5,6,7,9-tetrahydro-1,2-dimethoxy-10-(methylthio)-9-oxobenzo[a]heptalen-3-yl β-D-glucopyranosiduronic acid]",muscle relaxant activity,muscle relaxant activity similar to that of thiocolchicoside
